# Reference: patent publication US10092586B2, “Glycolipid containing compositions for use in the treatment of tumors” (Agalimmune Limited (GB/GB), priority 2014, dated 2018)
# Where “and” joins values, the source holds several entries; their conditions need not be identical. Identical values can stand only once. Like-named read-outs stand apart in the source and are kept apart here.
# How the values were obtained:
# [1] = system: monoclonal mouse anti-Gal IgM (M86 hybridoma supernatant); test: ELISA to demonstrate binding to anti-Gal antibodies; conditions: α-Gal BOEL dried in ELISA wells, serial dilution from 2 mg/ml
# Method: A 96-well plate is first coated with α-Gal BOEL (obtained from Sigma as FSL-Galili(tri)™, Catalogue No. F9432). 50 μL PBS is added to each well. α-Gal BOEL is resuspended in PBS to a concentration of 2 mg/ml and 50 μL added to a well. Serial dilutions are performed by transferring 50 μL into wells across the plate making sure that each well is thoroughly mixed before transfer. The plate is left overnight to dry.
# 150 μL of blocking buffer (1×PBS/1% BSA) is added to the dry wells. The plate is covered and incubated at 37° C. for 2 hours. The well contents are discarded and the wells washed with PBS. 50 μL of the primary anti-Gal antibody (monoclonal mouse anti-Gal IgM in this example, M86 hybridoma supernatant) is added to each well. The plate is incubated at room temperature for 2 hours. The plate is washed 3 times with 200 μL washing buffer (1×PBS, 0.05% Tween).
# 50 μL of secondary goat anti-mouse IgM-HRP solution (Accurate Chemical; Catalogue No. JGM035020) is added to each well. The plate is covered and incubated at room temperature for 1 hour and then is washed 3 times with 200 μL washing buffer. 100 μL of a standard OPD (o-Phenylenediamine dihydrochloride) solution (e.g. Sigma; Catalogue No. P8287) is added to each well, incubated for 5 minutes and then 50 μL of stop solution (1 M sulfuric acid) is added. The well absorbances are immediately read at 492 nm (A492) (see FIG. 2).
# [2] = system: CHO-K1 cells; test: Complement dependent cell cytotoxicity/cell lysis (CDC) assay; format: cell-based
# Method: The assays below quantify both the amount of α-Gal BOEL inserted into the cell plasma membranes and the functional impact of α-Gal BOEL insertion in stimulating anti-Gal mediated complement-dependent cytotoxicity (CDC). α-Gal BOEL is titrated and incubated with CHO-K1 cells. These cells are either fixed and used in a whole cell ELISA assay, to determine incorporation of α-Gal into membranes, or incubated with anti-Gal antibody and human serum to measure CDC (or general cytotoxicity in the absence of complement from human serum).
# (§1) α-Gal BOEL is titrated as follows. One 40 μl aliquot of α-Gal BOEL (2 mg/ml (obtained from Sigma as FSL-Galili(tri)™, Catalogue No. F9432)) is thawed and sonicated for 30 seconds. 40 μl of phosphate buffered saline (PBS) is added to the tube and vortexed for 10 seconds. 25 μl of this mix is added to 55 μl of PBS and mixed well. These dilutions are repeated to give a full titration of α-Gal BOEL in the desired concentration range.
# CHO-K1 cells, which lack α-Gal epitopes, are resuspended in Dulbecco's PBS (DPBS) at 37° C. and centrifuged at 1000 rpm for 5 minutes. […]
# An aliquot of the cell suspension (45 μl) is transferred to all tubes of α-Gal BOEL and mixed gently by inversion and incubated for 30 minutes at 37° C. […] The cell suspension (25 μl) is transferred either to an assay plate (standard white 96-well plate for luminescence readout (available from Corning)) to perform the CDC assay (A) or 50 μl transferred to a poly-d-lysine coated plate (available from Sigma) for the in-cell ELISA (B) to measure incorporation into cell membranes.
# Anti-Gal antibody (from a range of sources, mouse anti-Gal containing plasma in this example) is added (25 μl/well) to the CDC assay plate (A) and then incubated for 30 minutes at 37° C. […] The human serum (containing active complement) is diluted in warm media (to a pre-determined level by titration in the assay) and 50 μl added to each well. […] This reagent luminescence is proportional to the […]. […] Luminescence output is measured using a standard 96-well plate reader (see FIG. 3).
# [3] = system: CHO-K1 cells; test: General cellular toxicity (CDC procedure without human serum); format: cell-based; conditions: absence of human serum; up to 500 μg/ml; CellTitreGlo
# Method: as §1
# (§2) CHO-K1 cells, which lack α-Gal epitopes, are resuspended in Dulbecco's PBS (DPBS) at 37° C. and centrifuged at 1000 rpm for 5 minutes. The supernatant is aspirated and the cell pellet resuspended to 1×10^7 cells/ml in 450 μl DPBS (37° C.). The cell pellet is washed again to remove all traces of serum.
# (§3) An aliquot of the cell suspension (45 μl) is transferred to all tubes of α-Gal BOEL and mixed gently by inversion and incubated for 30 minutes at 37° C. […] The cell suspension (25 μl) is transferred either to an assay plate (standard white 96-well plate for luminescence readout (available from Corning)) to perform the CDC assay (A) or 50 μl transferred to a poly-d-lysine coated plate (available from Sigma) for the in-cell ELISA (B) to measure incorporation into cell membranes. […]
# General cellular toxicity was measured by following the CDC assay procedure above but replacing human serum with pre-warmed media. […]
# [4] = system: CHO-K1 cells; test: In-cell ELISA to measure incorporation of α-Gal BOEL into cells; format: cell-based; conditions: CHO-K1 cells incubated 30 minutes at 37° C.; M86 primary antibody
# Method: as §1, §2, §3
# 100 μL/well of TMB Substrate is added the plate incubated at room temperature, protected from light. […] The absorbance at 450 nm is measured within 30 minutes of stopping the reaction (see FIG. 5).
# [5] = system: CHO-K1 cells; test: Complement deposition assay (flow cytometry), human serum; format: cell-based; conditions: 500 μg/ml, 2.5% human serum
# Method: (§4) 1×10^6 B16-F10 and CHO-K1 cells were harvested from growing cultures and incubated with 500 μg/ml αGal BOEL in PBS for 1 hour at 37° C., after which the cells were washed 3 times with PBS. After washing the CHO-K1 cells were incubated with either 2.5% normal (NHS) or heat-inactivated (HI NHS) human serum for 10 minutes at 37° C. The B16-F10 cells were incubated with either 2.5% serum from normal GT−/− mice (NMS) or 2.5% serum from pig kidney homogenate immunised mice (I NMS) for 10 minutes at 37° C. The cells were placed on ice and washed twice with ice-cold cell staining buffer (PBS+0.1% BSA). The cells were incubated with either anti-C3b (C3b, Pierce MAI-70054, diluted 1:1000 in cell staining buffer) or anti-SC5b-9 (MAC, Quidel A239, diluted 1:100 in cell staining buffer) for 30 minutes on ice. The cells were washed twice with ice cold cell staining buffer and incubated with FITC goat anti-mouse IgG (Abcam ab97022, diluted 1:2000 in cell staining buffer) for 30 minutes on ice. After 2 further washes with ice-cold cell staining buffer the cells were resuspended in ice-cold cell staining buffer plus 7-AAD (Biolegend 420403). The cells were analysed using a Beckman Coulter Cytomics FC500 flow cytometer, with data captured in the FL-1 channel. Data on the histograms presented are gated on live cells.
# [6] = system: B16-F10 cells; test: Complement deposition assay (flow cytometry), mouse serum; format: cell-based; conditions: B16 mouse melanoma cells, 500 μg/ml, 2.5% mouse serum
# Method: as §4
# [7] = system: B16-F10 melanoma cells; test: GT KO mouse melanoma model, distal tumour development; format: in vivo
# Method: FIG. 7: Dose titration experiments with α-Gal BOEL. Anti-Gal producing GT KO mice were injected with 1×10^6 B16-F10 melanoma cells for primary tumour growth on their right flanks and 1×10^4 B16-F10 cells for secondary/distal tumour injection on the opposite flank. 5 days later, the main tumours were intra-tumourally treated with PBS (open circles), or 0.1 mg α-Gal BOEL (open triangles), or 0.5 mg α-Gal BOEL (closed triangles), or 1 mg of α-Gal BOEL (closed circles). The development of visible distal tumours as model for metastases development was followed for up to 32 days. The percentages of mice without visible distal tumours are plotted in the graphs. Statistical differences between the groups were determined by log-rank test.
# FIG. 8: α-Gal BOEL activity in anti-Gal producing mice (i.e mice immunized with pig kidney membranes) or mice lacking anti-Gal (i.e. non-immunized mice). Hyper-immunized or non-immunized GT KO mice were injected with 1×10^6 B16-F10 cells for primary tumour growth on their right flanks and either 1×10^4 B16-F10 cells for secondary/distal tumour injection on the opposite flank. 4 days later, the main tumours were intra-tumourally treated with PBS in hyper-immunized mice (open circles), or 1 mg α-Gal BOEL (closed circles for hyper-immunized mice; open squares for non-immunized mice). The development of visible distal tumours as model for metastases development was followed for up to 28 days. The percentages of mice without visible distal tumours are plotted in the graph. Statistical differences between the groups were determined by log-rank test.
# In vivo pharmacodynamics experiments were conducted to assess the effects of α-Gal BOEL in a GT KO mouse melanoma model with B16-F10 melanoma cells. […] As a result, the GT KO mice can be immunized with pig kidney membrane homogenate to produce titers of IgG and IgM anti-Gal antibodies that are similar to those seen naturally in humans. Such an immune response is induced since pig kidney membranes contain a high concentration of α-Gal epitopes on cell membranes and in intercellular matrix.
# In the B16-F10 melanoma model, mice were injected with cultured B16-F10 cells on both flanks, on one side they were injected with 1×10^6 melanoma cells to create a primary tumour and with a reduced cell number on the contra-lateral flank (1×10^4 melanoma cells) to create a model of a ‘distant metastasis’ also referred to as secondary tumour. Primary tumours are injected intratumourally with α-Gal BOEL or vehicle control when a predefined tumour diameter is reached. The critical endpoint recorded is growth of the ‘distant’ tumour; this is used to measure the ability of an agent to elicit an effective protective anti-tumour immune response throughout the body. Doses from 0.1-2.5 mg of α-Gal BOEL were tested.
compound,measurement,setting,value
"CCCCCCCC/C=C\CCCCCCCC(=O)OC[C@H](COP(=O)(O)OCCNC(=O)CCCCC(=O)NCCCO[C@@H]1OC(CO)[C@@H](O[C@@H]2OC(CO)[C@H](O)[C@H](O[C@H]3OC(CO)[C@H](O)[C@H](O)C3O)C2O)[C@H](O)C1NC(C)=O)OC(=O)CCCCCCC/C=C\CCCCCCCC (stereo partly drawn) [α-Gal BOEL, (9Z,9′Z)-(2R)-3-(((2-(6-((3-(((2R,3R,4R,5S,6R)-3-acetamido-5-(((2S,3R,4S,5S,6R)-3,5-dihydroxy-6-(hydroxymethyl)-4-(((2R,3R,4S,5R,6R)-3,4,5-trihydroxy-6-(hydroxymethyl)tetrahydro-2H-pyran-2-yl)oxy)tetrahydro-2H-pyran-2-yl)oxy)-4-hydroxy-6-(hydroxymethyl)tetrahydro-2H-pyran-2-yl)oxy)propyl)amino)-6-oxohexanamido)ethoxy)(hydroxy)phosphoryl)oxy)propane-1,2-diyl bis(octadec-9-enoate)]",binding of monoclonal anti-Gal antibody (A492),[1],binds to α-Gal epitopes on the α-Gal BOEL molecules
same,EC50,"[2]; Cricetulus griseus, CHO-K1, inhibition of CDC, CHO-K1 cells, mouse anti-Gal plasma, human serum, CellTiterGlo, single independent experiment, read-out: EC50",1.36 mg/L
same,EC50,"[2]; Cricetulus griseus, CHO-K1, inhibition of CDC, over 4 independent experiments, read-out: Geomean / mean EC50",1.35 mg/L
same,EC50,"[2]; inhibition of CDC, CHO-K1 cells, mouse anti-Gal plasma, human serum, CellTiterGlo, single independent experiment",1.24 mg/L and 1.38 mg/L and 1.43 mg/L
same,impact on cell viability / overt cytotoxicity,[3],no impact on cell viability
same,incorporation into cells (absorbance at 450 nm),[4],can be detected on the surface of CHO-K1 cells
same,deposition of complement protein C3b,[5],leads to the deposition
same,deposition of complement protein MAC,[5],leads to the deposition
same,deposition of complement protein C3b,[6],leads to the deposition
same,deposition of complement protein MAC,[6],leads to the deposition
same,mice protected from secondary tumour development,"[7]; 1 mg intratumoural, anti-Gal producing (immunized) GT KO mice, up to 28 days",80%
same,degree of protection versus 0.1-mg and 0.5-mg doses,"[7]; 1 mg intratumoural, anti-Gal producing GT KO mice, up to 32 days",higher degree of protection
same,protective activity against secondary tumour development,"[7]; 1 mg intratumoural, non-immunized GT KO mice (lacking anti-Gal)",lacked protective activity
same,activity response across doses (protection from distal tumour),"[7]; 0.1-mg to 1-mg intratumoural doses in 100 μL vehicle, side-by-side, anti-Gal producing GT KO mice",dose-dependent activity response
